Data published in US8993542B2, “Methods of treating viral infections” (priority 2008, dated 2015).

Legend:
HIV = test: microbe, parasite or virus in culture; format: cell-based
HIV-1IIIB = test: Two-drug combination antiviral assay in CEM cells (CPE), MacSynergy II; format: cell-based; conditions: in combination with CMX157, CEM-SS cells, 95% confidence
[1] = Human immunodeficiency virus 1, PANEL 2, WT
[2] = Human immunodeficiency virus 1, PANEL 3, 6 TAMs, no 184
[3] = Human immunodeficiency virus 1, PANEL 6, 6 TAMs + 184
[4] = Human immunodeficiency virus 1, PANEL 7, 184V
[5] = Human immunodeficiency virus 1, PANEL 9, 69ins, no 184
[6] = Human immunodeficiency virus 1, PANEL 12, 69ins + 184
[7] = Human immunodeficiency virus 1, PANEL 14, 65R, no 184
[8] = Human immunodeficiency virus 1, PANEL 15, 65R + 184V
[9] = Human immunodeficiency virus 1, PANEL 17, L74V
[10] = Human immunodeficiency virus 1, PANEL 19, L74V + M184V
[11] = Human immunodeficiency virus 1, PANEL 26, 151M, no 184
[12] = Human immunodeficiency virus 1, PANEL 28, 151M + 184
[13] = Human immunodeficiency virus 1, PANEL 29, L74V − SDM
[14] = Human immunodeficiency virus 1, PANEL 30, M184V − SDM
[15] = Human immunodeficiency virus 1, PANEL 31, K65R − SDM
[16] = Human immunodeficiency virus 1, PANEL 33, T215Y
[17] = Human immunodeficiency virus 1, PANEL 34, T215Y + M184V
[18] = Human immunodeficiency virus 1, PANEL 35, M41L + T215Y
[19] = Human immunodeficiency virus 1, PANEL 37, M41L + T215Y + M184V
[20] = Human immunodeficiency virus 1, PANEL 38, M41L + L210W + T215Y
[21] = Human immunodeficiency virus 1, PANEL 39, M41L + L210W + T215Y
[22] = Human immunodeficiency virus 1, PANEL 40, M41L + L210W + T215Y + M184V
[23] = Human immunodeficiency virus 1, PANEL 41, M41L + L210W + T215Y + M184V
[24] = Human immunodeficiency virus 1, PANEL 42, D67N + K70R
[25] = Human immunodeficiency virus 1, PANEL 44, D67N + K70R + T215F + K219E + M184V
[26] = Human immunodeficiency virus 1, PANEL 45, L210W + T215Y
[27] = Human immunodeficiency virus 1, PANEL 46, D67N + K70E
[28] = Human immunodeficiency virus 1, PANEL 47, D67N + K70E + M184V
[29] = Human immunodeficiency virus 1, PANEL 48, K70E + M184V

Cc1cn([C@H]2C[C@H](N=[N+]=[N-])[C@@H](CO)O2)c(=O)[nH]c1=O [ZDV, 3′-azido-2′,3′-dideoxythymdine]
IC50 (HIV; [1]): 17 nM
IC50 (HIV; [2]): 9560 nM
IC50 (HIV; [3]): 1610 nM
IC50 (HIV; [4]): 17 nM
IC50 (HIV; [5]): > 25000 nM
IC50 (HIV; [6]): 8710 nM
IC50 (HIV; [7]): 12 nM
IC50 (HIV; [8]): 11 nM
IC50 (HIV; [9]): 11 nM
IC50 (HIV; [10]): 6 nM
IC50 (HIV; [11]): 2540 nM
IC50 (HIV; [12]): 4180 nM
IC50 (HIV; [13]): 14 nM
IC50 (HIV; [14]): 9 nM
IC50 (HIV; [15]): 14 nM
IC50 (HIV; [16]): 1050 nM
IC50 (HIV; [17]): 71 nM
IC50 (HIV; [18]): 557 nM
IC50 (HIV; [19]): 177 nM
IC50 (HIV; [20]): 2720 nM
IC50 (HIV; [21]): 2680 nM
IC50 (HIV; [22]): 87 nM
IC50 (HIV; [23]): 107 nM
IC50 (HIV; [24]): 770 nM
IC50 (HIV; [25]): 192 nM
IC50 (HIV; [26]): 207 nM
IC50 (HIV; [27]): 6 nM
IC50 (HIV; [28]): 4 nM
IC50 (HIV; [29]): 4 nM
Antagonism Volume, Result 1 (HIV-1IIIB): −67.8 nM^2 %, μM^2 % or nMμM %
Antagonism Volume, Result 2 (HIV-1IIIB): 0 nM^2 %, μM^2 % or nMμM %
Antagonism Volume, Result 3 (HIV-1IIIB): −0.77 nM^2 %, μM^2 % or nMμM %
Mean Antagonism Volume (n = 3) (HIV-1IIIB): −21.7 nM^2 %, μM^2 % or nMμM %
Mean Synergy Volume (n = 3) (HIV-1IIIB): 11.5 nM^2 %, μM^2 % or nMμM %
Synergy Volume, Result 1 (HIV-1IIIB): 5.01 nM^2 %, μM^2 % or nMμM %
Synergy Volume, Result 2 (HIV-1IIIB): 32.7 nM^2 %, μM^2 % or nMμM %
Synergy Volume, Result 3 (HIV-1IIIB): 0 nM^2 %, μM^2 % or nMμM %

Cc1cn([C@H]2C=C[C@@H](CO)O2)c(=O)[nH]c1=O [d4T, 2′,3′-didehydro-3′-deoxythymidine]
IC50 (HIV; Human immunodeficiency virus 1, PANEL 1, WT): 510 nM
IC50 (HIV; [1]): 480 nM
IC50 (HIV; [2]): 2170 nM
IC50 (HIV; [3]): 1350 nM
IC50 (HIV; [4]): 460 nM
IC50 (HIV; [5]): 6390 nM
IC50 (HIV; [6]): 6790 nM
IC50 (HIV; [7]): 770 nM
IC50 (HIV; [8]): 590 nM
IC50 (HIV; [9]): 600 nM
IC50 (HIV; [10]): 420 nM
IC50 (HIV; [11]): 5540 nM
IC50 (HIV; [12]): 4220 nM
IC50 (HIV; [13]): 630 nM
IC50 (HIV; [14]): 400 nM
IC50 (HIV; [15]): 830 nM
IC50 (HIV; [16]): 830 nM
IC50 (HIV; [17]): 650 nM
IC50 (HIV; [18]): 840 nM
IC50 (HIV; [19]): 860 nM
IC50 (HIV; [20]): 1220 nM
IC50 (HIV; [21]): 1090 nM
IC50 (HIV; [22]): 880 nM
IC50 (HIV; [23]): 1050 nM
IC50 (HIV; [24]): 780 nM
IC50 (HIV; [25]): 790 nM
IC50 (HIV; [26]): 940 nM
IC50 (HIV; [27]): 560 nM
IC50 (HIV; [28]): 420 nM
IC50 (HIV; [29]): 390 nM
IC50 Fold Change (HIV; PANEL 1, WT): 0.86
IC50 Fold Change (HIV; PANEL 2, WT): 0.81
IC50 Fold Change (HIV; PANEL 3, 6 TAMs, no 184): 3.66
IC50 Fold Change (HIV; PANEL 6, 6 TAMs + 184): 2.28
IC50 Fold Change (HIV; PANEL 7, 184V): 0.77
IC50 Fold Change (HIV; PANEL 9, 69ins, no 184): 11.00
IC50 Fold Change (HIV; PANEL 12, 69ins + 184): 11.00
IC50 Fold Change (HIV; PANEL 14, 65R, no 184): 1.30
IC50 Fold Change (HIV; PANEL 15, 65R + 184V): 0.99
IC50 Fold Change (HIV; PANEL 17, L74V): 1.01
IC50 Fold Change (HIV; PANEL 19, L74V + M184V): 0.71
IC50 Fold Change (HIV; PANEL 26, 151M, no 184): 9.33
IC50 Fold Change (HIV; PANEL 28, 151M + 184): 7.10
IC50 Fold Change (HIV; PANEL 29, L74V − SDM): 1.07
IC50 Fold Change (HIV; PANEL 30, M184V − SDM): 0.68
IC50 Fold Change (HIV; PANEL 31, K65R − SDM): 1.40
IC50 Fold Change (HIV; PANEL 33, T215Y): 1.40
IC50 Fold Change (HIV; PANEL 34, T215Y + M184V): 1.10
IC50 Fold Change (HIV; PANEL 35, M41L + T215Y): 1.41
IC50 Fold Change (HIV; PANEL 37, M41L + T215Y + M184V): 1.46
IC50 Fold Change (HIV; PANEL 38, M41L + L210W + T215Y): 2.06
IC50 Fold Change (HIV; PANEL 39, M41L + L210W + T215Y): 1.84
IC50 Fold Change (HIV; PANEL 40, M41L + L210W + T215Y + M184V): 1.48
IC50 Fold Change (HIV; PANEL 41, M41L + L210W + T215Y + M184V): 1.77
IC50 Fold Change (HIV; PANEL 42, D67N + K70R): 1.31
IC50 Fold Change (HIV; PANEL 44, D67N + K70R + T215F + K219E + M184V): 1.32
IC50 Fold Change (HIV; PANEL 45, L210W + T215Y): 1.58
IC50 Fold Change (HIV; PANEL 46, D67N + K70E): 0.94
IC50 Fold Change (HIV; PANEL 47, D67N + K70E + M184V): 0.70
IC50 Fold Change (HIV; PANEL 48, K70E + M184V): 0.65
Antagonism Volume, Result 1 (HIV-1IIIB): 0 nM^2 %, μM^2 % or nMμM %
Antagonism Volume, Result 2 (HIV-1IIIB): 0 nM^2 %, μM^2 % or nMμM %
Antagonism Volume, Result 3 (HIV-1IIIB): −1.83 nM^2 %, μM^2 % or nMμM %
Mean Antagonism Volume (n = 3) (HIV-1IIIB): −0.61 nM^2 %, μM^2 % or nMμM %
Mean Synergy Volume (n = 3) (HIV-1IIIB): 15.2 nM^2 %, μM^2 % or nMμM %
Synergy Volume, Result 1 (HIV-1IIIB): 4.47 nM^2 %, μM^2 % or nMμM %
Synergy Volume, Result 2 (HIV-1IIIB): 40.6 nM^2 %, μM^2 % or nMμM %
Synergy Volume, Result 3 (HIV-1IIIB): 0.39 nM^2 %, μM^2 % or nMμM %
